According to ChEMBL document CHEMBL4138309, “Discovery of β-Adrenergic Receptors Blocker-Carbonic Anhydrase Inhibitor Hybrids for Multitargeted Antiglaucoma Therapy” (J Med Chem, 2018):
The source made the active and inactive calls. No cut-off for these calls is given here.

What was measured:
[1] = test system: Oryctolagus cuniculus; assay: Anti-glaucoma activity in hypertonic saline-induced hypertensive New Zealand albino rabbit model assessed as decrease in intraocular pressure at 0.25% instilled into eye vitreous measured at 60 mins post administration by pneumatonometric analysis; assay type: functional
[2] = test system: Oryctolagus cuniculus; assay: Anti-glaucoma activity in hypertonic saline-induced hypertensive New Zealand albino rabbit model assessed as decrease in intraocular pressure at 0.25% instilled into eye vitreous along with 1% DRZ measured at 2 hrs post administration by pneumatonometric analysis; assay type: functional
[3] = test system: Oryctolagus cuniculus; assay: Anti-glaucoma activity in hypertonic saline-induced hypertensive New Zealand albino rabbit model assessed as decrease in intraocular pressure at 0.25% instilled into eye vitreous measured at 2 hrs post administration by pneumatonometric analysis; assay type: functional
[4] = test system: Oryctolagus cuniculus; assay: Anti-glaucoma activity in hypertonic saline-induced hypertensive New Zealand albino rabbit model assessed as decrease in intraocular pressure at 0.25% instilled into eye vitreous measured at 4 hrs post administration by pneumatonometric analysis; assay type: functional, organism-based
[5] = test system: Oryctolagus cuniculus; assay: Anti-glaucoma activity in hypertonic saline-induced hypertensive New Zealand albino rabbit model assessed as decrease in intraocular pressure at 0.25% instilled into eye vitreous along with 1% DRZ measured at 4 hrs post administration by pneumatonometric analysis; assay type: functional, organism-based
[6] = biological target: Carbonic anhydrase 9 (Homo sapiens, UniProt Q16790)
[7] = biological target: Beta-1 adrenergic receptor (Homo sapiens, UniProt P08588); assay: biochemical
Sequence of Beta-1 adrenergic receptor (P08588 whole entry): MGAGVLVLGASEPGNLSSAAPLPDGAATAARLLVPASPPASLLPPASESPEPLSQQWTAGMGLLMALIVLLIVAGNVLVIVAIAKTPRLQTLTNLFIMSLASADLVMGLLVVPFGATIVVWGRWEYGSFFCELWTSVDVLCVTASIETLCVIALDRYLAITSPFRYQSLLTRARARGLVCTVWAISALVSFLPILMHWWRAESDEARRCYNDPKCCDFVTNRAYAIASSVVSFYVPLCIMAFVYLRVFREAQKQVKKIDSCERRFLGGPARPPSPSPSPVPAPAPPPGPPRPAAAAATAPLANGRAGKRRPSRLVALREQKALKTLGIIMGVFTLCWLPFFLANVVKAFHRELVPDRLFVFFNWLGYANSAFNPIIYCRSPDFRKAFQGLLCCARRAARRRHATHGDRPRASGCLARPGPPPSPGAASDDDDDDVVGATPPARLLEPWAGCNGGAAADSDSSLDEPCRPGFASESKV

[8] = biological target: Beta-2 adrenergic receptor (Homo sapiens, UniProt P07550); assay: Displacement of [3H]-CGP12177 from human beta2 ADR expressed in HEK293T cell membrane after 90 mins by scintillation counting
Sequence of Beta-2 adrenergic receptor (P07550 whole entry): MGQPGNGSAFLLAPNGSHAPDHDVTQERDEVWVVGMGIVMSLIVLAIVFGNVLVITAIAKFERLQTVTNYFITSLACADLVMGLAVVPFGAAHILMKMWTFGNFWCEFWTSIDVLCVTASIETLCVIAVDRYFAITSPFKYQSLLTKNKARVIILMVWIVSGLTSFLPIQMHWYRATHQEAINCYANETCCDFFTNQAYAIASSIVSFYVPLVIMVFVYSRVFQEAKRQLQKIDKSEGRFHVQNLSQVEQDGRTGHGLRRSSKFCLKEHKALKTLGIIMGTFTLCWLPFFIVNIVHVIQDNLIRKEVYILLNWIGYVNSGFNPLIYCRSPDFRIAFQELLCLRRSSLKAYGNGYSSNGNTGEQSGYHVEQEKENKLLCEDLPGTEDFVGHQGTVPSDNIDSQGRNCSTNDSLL

[9] = test system: Oryctolagus cuniculus; assay: Anti-glaucoma activity in hypertonic saline-induced hypertensive New Zealand albino rabbit model assessed as decrease in intraocular pressure at 1% instilled into eye vitreous measured at 60 mins post administration by pneumatonometric analysis relative to DRZ + timolol (1% + 0.25%); assay type: functional, organism-based
[10] = test system: Oryctolagus cuniculus; assay: Anti-glaucoma activity in hypertonic saline-induced hypertensive New Zealand albino rabbit model assessed as decrease in intraocular pressure at 1% instilled into eye vitreous measured at 4 hrs post administration by pneumatonometric analysis; assay type: functional

SMILES	Ki [6]	Ki [7]	Ki [8]	further results
CC(C)(C)NC[C@H](O)COc1nsnc1N1CCOCC1 [TIMOLOL]	–	–	–	Activity [1]: 5.73 mmHg; Activity [2]: 5 mmHg; Activity [3]: 3.54 mmHg; Activity [4]: inactive; Activity [5]: inactive
NS(=O)(=O)c1ccc(CCNC(=O)c2ccc(OCC(O)CNCc3ccccc3)cc2)cc1 (stereo unspecified)	0.0747 µM	> 100 µM	> 100 µM	–
CNCC(O)COc1ccc(S(N)(=O)=O)cc1 (stereo unspecified)	0.0234 µM	> 100 µM	> 100 µM	–
CNCC(O)COc1ccc(S(=O)(=O)NC(C)(C)C)cc1.Cl (stereo unspecified)	0.0954 µM	13.5 µM	5.01 µM	Activity [9]: Active; Activity [10]: 3.25 - 3.67 mmHg
CNCC(O)COc1ccc(S(=O)(=O)NC(C)C(C)C)cc1 (stereo unspecified)	0.108 µM	15.5 µM	30.2 µM	–
CNCC(O)COc1ccc(S(=O)(=O)NCCOc2ccccc2)cc1 (stereo unspecified)	0.0846 µM	6.61 µM	28.2 µM	–
CNCC(O)COc1ccc(S(=O)(=O)N2CCN(C)CC2)cc1 (stereo unspecified)	0.127 µM	> 100 µM	> 100 µM	–
CC(C)NCC(O)COc1ccc(C(=O)NCCc2ccc(S(N)(=O)=O)cc2)cc1 (stereo unspecified)	0.0618 µM	> 100 µM	> 100 µM	–
CCC(C)NCC(O)COc1ccc(C(=O)NCCc2ccc(S(N)(=O)=O)cc2)cc1 (stereo unspecified)	0.0536 µM	> 100 µM	> 100 µM	–
CNCC(O)COc1ccc(S(=O)(=O)NCc2ccccc2)cc1 (stereo unspecified)	0.0931 µM	79.4 µM	> 100 µM	–
CNCC(O)COc1ccc(S(=O)(=O)NCCc2ccccc2)cc1 (stereo unspecified)	0.0592 µM	26.9 µM	39.8 µM	Activity [9]: Active
CC(C)(C)NCC(O)COc1ccc(C(=O)NCCc2ccc(S(N)(=O)=O)cc2)cc1 (stereo unspecified)	0.0831 µM	> 100 µM	> 100 µM	–
CNCC(O)COc1ccc(S(=O)(=O)NC(C)C)cc1.Cl (stereo unspecified)	0.0476 µM	10.5 µM	31.6 µM	Activity [9]: Active; Activity [10]: 3.25 - 3.67 mmHg

Continued, in another order:

Ki [6]	Ki [7]	Ki [8]	SMILES	further results
0.0221 µM	> 100 µM	> 100 µM	CCNCC(O)COc1ccc(C(=O)NCCc2ccc(S(N)(=O)=O)cc2)cc1 (stereo unspecified)	–
0.0074 µM	> 100 µM	> 100 µM	CCCNCC(O)COc1ccc(C(=O)NCCc2ccc(S(N)(=O)=O)cc2)cc1 (stereo unspecified)	–
0.0017 µM	> 100 µM	> 100 µM	CNCC(O)COc1ccc(C(=O)NCCc2ccc(S(N)(=O)=O)cc2)cc1 (stereo unspecified)	–
0.007 µM	> 100 µM	> 100 µM	Cl.NS(=O)(=O)c1ccc(CCNC(=O)c2ccc(OCC(O)CN3CCOCC3)cc2)cc1 (stereo unspecified)	Activity [9]: Active; Activity [10]: 3.25 - 3.67 mmHg
0.0058 µM	> 100 µM	> 100 µM	NS(=O)(=O)c1ccc(CCNC(=O)c2ccc(OCC(O)CNCCO)cc2)cc1 (stereo unspecified)	–
0.006 µM	> 100 µM	> 100 µM	CC(C)N(CC(O)COc1ccc(C(=O)NCCc2ccc(S(N)(=O)=O)cc2)cc1)C(C)C (stereo unspecified)	–
